59 compounds from the METLIN SMRT retention time set (Domingo-Almenara et al. 2019) can be followed below.

The data set in a line: gradient 5% acetonitrile 3 min, to 50% in 2 min, to 85% in 15 min, held 3 min, 100 µL/min. The following applies: column: Zorbax Extend-C18 2.1 x 50 mm; eluents: water / acetonitrile, 0.1% formic acid. An outline of the steps:
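Using water and acetonitrile that each contained 0.1% formic acid, mixtures of ~100 pure standards were separated at 100 μL/min on a Zorbax Extend-C18 column (2.1 × 50 mm, 1.8 μm). The HPLC fed a quadrupole time-of-flight mass spectrometer working in positive and negative ionization mode, with dead and dwell volumes of 40 μL and 900 μL. Data were acquired over 3 months. Retention time was read from computationally picked adduct peaks after manual inspection of each.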
Consider `COc1ccc(-c2nnc(COc3ccc(NC(=O)c4ccc(Br)o4)cc3)o2)cc1`, for which the RP-LC retention time is 934 s.
The compound `Fc1ccc(-c2csc(Cc3nc(-c4ccc(Cl)cc4)no3)n2)cc1` returned an RP-LC retention time of 1310 s.
Under `Cc1c(-c2nn3c(Cc4ccccc4)nnc3s2)nnn1-c1ccccc1` stands 939 s; under `Cc1nc2cccnc2n1CCN1CCN(C(=O)Nc2ccc(Cl)cc2)CC1`, 610 s; under `CCOC(=O)c1cccc(NS(=O)(=O)c2c(C)nn(-c3ccc(-c4ccccc4)nn3)c2C)c1`, 1070 s.
Take `CCCN1C(=O)c2c(C(=O)NCc3ccccc3Cl)ncn2CC1(C)C(=O)NC1CCCC1` (centres undefined): the RP-LC retention time is 868 s.
With `Fc1cccc(Cc2nc(-c3cccc(-c4ccn[nH]4)c3)no2)c1`, the RP-LC retention time came out at 915 s.
As for `Cc1ccc(C2=NC3(CCN(C(=O)CSc4ccccc4)CC3)ON2)cc1`, the RP-LC retention time worked out at 894 s.
The compound `Fc1ccc(CN2CCN(c3cnn4c(C5CC5)nnc4c3)CC2)cc1` showed an RP-LC retention time of 498 s.
Compound `Cc1cc2c(cc1S(=O)(=O)NC1CC1)N(C(=O)C1CCC1)CC2` gave an RP-LC retention time of 844 s.
`CCn1c(C(=O)N2CCCC(C(=O)N3CCc4ccccc4C3)C2)cc2sccc21` (centres undefined): the RP-LC retention time worked out at 966 s.
Under `C=CCSc1n[nH]c(-c2cccs2)n1` stands 792 s; under `CCC(C)NC(=O)N1CCN(Cc2nc3cccnc3n2-c2ccc(OC)cc2)CC1` (centres undefined), 621 s.
For the compound `COc1ccc(NC(=O)C2CCN(S(=O)(=O)c3ccc4c(c3)CCCC(=O)N4)CC2)c(OC)c1`, the RP-LC retention time was determined as 741 s.
In turn, `Cc1nc(C2CCCN2Cc2ccc(F)cc2F)n[nH]1` (centres undefined) displayed an RP-LC retention time of 560 s.
In turn, `CN(C)c1cccc(-c2nc(-c3cn(-c4cccc(F)c4)nn3)no2)c1` yielded an RP-LC retention time of 1110 s.
Turning to `C=C(C)Cn1c(COc2ccccc2)nc2ccccc21`, the RP-LC retention time amounted to 718 s.
Regarding `CC1(C(=O)Nc2ccc(F)c(F)c2)CCCCC(=O)N1` (centres undefined), the RP-LC retention time stood at 715 s.
Under `O=C(c1ccc(Br)o1)N1CCN(c2cc(-c3ccccc3)[nH]n2)CC1` stands 796 s; under `Cc1cc(NC(=O)CSc2[nH]c(=O)ncc2C)on1`, 567 s; under `Cc1cccc(C2CCCN2C(=O)c2nn(C)cc2Cl)c1` (centres undefined), 849 s.
The compound `CCN1CCN(Cc2ccc(C(=O)NCc3ccccc3C(F)(F)F)cc2)C(=O)C1=O` showed an RP-LC retention time of 721 s.
Under `CCSc1nc2ccc(NS(=O)(=O)c3ccccc3Cl)cc2s1` stands 1030 s; under `COCCNC(=O)c1ccccc1-c1ocnc1C(=O)OC(C)C`, 676 s; under `Cc1ccc(F)cc1NS(=O)(=O)c1cc(-c2[nH]ncc2C(=O)N2CCOCC2)oc1C`, 704 s.
On to `O=C(CCC1CCN(c2cc(NC3CC3)ncn2)CC1)NCc1cnccn1`, for which the RP-LC retention time turned out to be 564 s.
With `O=C(NCc1ccccc1F)C1CCN(c2cncnc2N2CCOCC2)CC1`, the RP-LC retention time is 611 s.
`Cc1nc(-n2cccc2)sc1C(=O)NCCn1nc(-c2ccco2)ccc1=O` had an RP-LC retention time of 710 s.
On to `CCc1cc(C(=O)N2CCN(CC)CC2)nc2cc(-c3ccsc3)nn12`, for which the RP-LC retention time was 664 s.
The compound `Cc1ccc(CNC(=O)c2ccc(CN3CCN(Cc4ccc(F)cc4)C(=O)C3=O)cc2)o1` came in with an RP-LC retention time of 823 s.
Under `CCOCC(=O)N1CCCN(C2=NS(=O)(=O)C(c3ccc(C)c(C)c3)=C2C)CC1` stands 795 s; under `CCNc1cc(N2CCC(CCC(=O)NCc3ccccc3)CC2)ncn1`, 647 s; under `CNC(=O)N1CCCC(c2cccc(C(=O)NCc3cccc(C(F)(F)F)c3)c2)C1` (centres undefined), 850 s.
Under `COC(=O)c1cc(S(=O)(=O)N2CCCC2C(=O)Nc2cccc(Br)c2)cn1C` (centres undefined) stands 963 s.
In turn, `CCc1nn2c(nnc3c(=O)n(CCc4c[nH]c5ccccc45)ccc32)c1-c1ccccc1` registered an RP-LC retention time of 1010 s.
As for `Cc1nnc2cc(N3CCN(S(=O)(=O)c4cccc(C(F)(F)F)c4)CC3)cnn12`, the RP-LC retention time is 730 s.
Under `O=C(Nc1nc2c(s1)CCc1ccccc1-2)c1ccc(S(=O)(=O)N2CCCC2)cc1` stands 1110 s; under `CCc1nc2cccnc2n1CCN1CCN(C(=O)Nc2ccc(C)cc2Cl)CC1`, 616 s.
For `COc1cccc(N2C(=O)C3N=NN(Cc4nc(-c5ccc(Cl)cc5)no4)C3C2=O)c1` (centres undefined), the RP-LC retention time came to 1010 s.
The compound `Cc1ccccc1C1CC(=O)c2c(C)nc(N3CCN(CCO)CC3)nc2C1` (centres undefined) gave an RP-LC retention time of 656 s.
Under `COc1ccc(CN2CN=C(Nc3nc(C)c4cc(OC)ccc4n3)NC2)cc1` stands 748 s; under `O=C(NCc1cccs1)c1ccc2c(c1)ncn2CCN1CCCC1`, 577 s; under `Cc1ccc(C)c(NC(=O)Cn2nc3nc(N4CCCC4)ccn3c2=O)c1`, 687 s.
Under `c1cncc(-c2noc(COC3CCCN(C4CCCC4)C3)n2)c1` (centres undefined) stands 585 s; under `Cc1ccc(C(=O)N2CCC(CCOCC3CC3)CC2)cn1`, 660 s.
The compound `Cn1nc(-c2nnc(-c3ccccc3F)o2)c2c1CCN(S(=O)(=O)c1ccc(F)cc1F)C2` returned an RP-LC retention time of 922 s.
The compound `COC(=O)CNC(=O)Nc1ccc2nc(-c3ccccc3)cc(OC)c2c1` yielded an RP-LC retention time of 629 s.
`O=C1CCN(C(=O)C2CCN(C(=O)C3CCCC3)CC2)CCCCCCN1`: the RP-LC retention time turned out to be 652 s.
The compound `COc1ccc(-c2ncccc2CNS(=O)(=O)c2ccc(C)cc2C)cc1` returned an RP-LC retention time of 715 s.
Compound `Cn1nc(C(=O)N2CCCC(C(=O)Nc3ccccc3)C2)c2c1CCN(C(=O)c1cccc(F)c1)C2` (centres undefined) had an RP-LC retention time of 756 s.
Regarding `CCCOC(=O)C1=C(C)NC2=C(C(=O)C(C(=O)OC)C(C)C2)C1c1cccc(OC)c1` (centres undefined), the RP-LC retention time was determined as 934 s.
In turn, `COc1ccc(CNC(=O)C2=C3CCCN3c3ccccc3S2(=O)=O)c(OC)c1` had an RP-LC retention time of 835 s.
For `Cc1cc(C)c2c(-n3cccc3)nn(CC(=O)NCc3cccc(Br)c3)c2n1`, the RP-LC retention time was 1020 s.
`CCc1ccc(C2=C(C)C(N3CCCN(C(=O)C(C)C)CC3)=NS2(=O)=O)cc1` displayed an RP-LC retention time of 824 s.
Under `CCC(C)(C)NC(=O)C1CCN(S(=O)(=O)c2c(C)[nH]c(C)c2C(=O)N2CCCCC2)CC1` stands 746 s; under `CCC(=O)Nc1cc(C(=O)NCc2ccc(N3CCOCC3)cc2)c2ccc(C)nc2c1`, 585 s.
As for `CCc1nccn1Cc1noc(-c2ccc(F)cc2)n1`, the RP-LC retention time is 615 s.
Under `O=S(=O)(NC1CCCN(c2cc(-c3ccncc3)[nH]n2)C1)c1ccc(Cl)cc1` (centres undefined) stands 579 s; under `Cc1ccc(F)cc1NS(=O)(=O)c1cc(-c2[nH]ncc2C(=O)N2CCCCC2)oc1C`, 791 s.
